Reference: paper PMC4370454, “The 4′-Hydroxyl Group of Resveratrol Is Functionally Important for Direct Activation of PPARα” (PLoS ONE, 2015)

Target: T1, PDE (bovine brain-derived phosphodiesterase, majority PDE4 isozyme)
T1 construct: bovine brain-derived PDE (Sigma), majority PDE4 isozyme
Test: PDE-Glo phosphodiesterase assay, […] cAMP substrate
Assay type: biochemical, Bos taurus

Row | Compound | IC50
1 | Oc1ccc(/N=N/c2ccccc2)cc1 [4-PAP, 4-phenylazophenol] | 26.5 µM
2 | Oc1ccc(/C=C/c2ccccc2)cc1 [T4HS, trans-4-hydroxystilbene] | 27.8 µM
3 | Oc1ccc(/C=C/c2cc(O)cc(O)c2)cc1 [resveratrol] | 19 µM
